Source: US6962920B2, “Pyrimidine derivatives and methods of making and using these derivatives” (Duquesne University of the Holy Ghost, priority 1992, dated 2005)
Where two headings read alike, the source gives them in different places.

Experiments:
[1] = system: SW-620; assay: NCI in vitro anti-cancer activity, Colon Cancer; assay type: cell-based
[2] = system: SK-MEL-28; assay: NCI in vitro anti-cancer activity, Melanoma; assay type: cell-based
[3] = system: M14; assay: NCI in vitro anti-cancer activity, Melanoma; assay type: cell-based
[4] = system: DU-145; assay: NCI in vitro anti-cancer activity, Prostate Cancer; assay type: cell-based
[5] = system: U251; assay: NCI in vitro anti-cancer activity, CNS Cancer; assay type: cell-based
[6] = system: MALME-3M; assay: NCI in vitro anti-cancer activity, Melanoma; assay type: cell-based
[7] = system: SK-MEL-2; assay: NCI in vitro anti-cancer activity, Melanoma; assay type: cell-based
[8] = system: CAKI-1; assay: NCI in vitro anti-cancer activity, Renal Cancer; assay type: cell-based
[9] = system: OVCAR-5; assay: NCI in vitro anti-cancer activity, Ovarian Cancer; assay type: cell-based
[10] = system: MDA-MB-435; assay: NCI in vitro anti-cancer activity, Breast Cancer; assay type: cell-based
[11] = system: HOP-92; assay type: cell-based
[12] = system: ACHN; assay: NCI in vitro anti-cancer activity, Renal Cancer; assay type: cell-based
[13] = system: HS 578T; assay: NCI in vitro anti-cancer activity, Breast Cancer; assay type: cell-based
[14] = system: OVCAR-4; assay: NCI in vitro anti-cancer activity, Ovarian Cancer; assay type: cell-based
[15] = system: TK-10; assay: NCI in vitro anti-cancer activity, Renal Cancer; assay type: cell-based
[16] = system: SN12C; assay: NCI in vitro anti-cancer activity, Renal Cancer; assay type: cell-based
[17] = system: OVCAR-8; assay: NCI in vitro anti-cancer activity, Ovarian Cancer; assay type: cell-based
[18] = system: SF-268; assay: NCI in vitro anti-cancer activity, CNS Cancer; assay type: cell-based
[19] = system: BT-549; assay: NCI in vitro anti-cancer activity, Breast Cancer; assay type: cell-based
[20] = system: SF-295; assay: NCI in vitro anti-cancer activity, CNS Cancer; assay type: cell-based
[21] = system: SNB-75; assay: NCI in vitro anti-cancer activity, CNS Cancer; assay type: cell-based
[22] = system: NCI-H522; assay type: cell-based
[23] = system: COLO 205; assay: NCI in vitro anti-cancer activity, Colon Cancer; assay type: cell-based
[24] = system: SK-OV-3; assay: NCI in vitro anti-cancer activity, Ovarian Cancer; assay type: cell-based
[25] = system: MDA-N; assay: NCI in vitro anti-cancer activity, Breast Cancer; assay type: cell-based
[26] = system: UO-31; assay: NCI in vitro anti-cancer activity, Renal Cancer; assay type: cell-based
[27] = system: SNB-19; assay: NCI in vitro anti-cancer activity, CNS Cancer; assay type: cell-based
[28] = system: SF-539; assay: NCI in vitro anti-cancer activity, CNS Cancer; assay type: cell-based
[29] = system: RXF 393; assay: NCI in vitro anti-cancer activity, Renal Cancer; assay type: cell-based
[30] = system: HCT-15; assay: NCI in vitro anti-cancer activity, Colon Cancer; assay type: cell-based
[31] = system: EKVX; assay type: cell-based
[32] = system: T-47D; assay: NCI in vitro anti-cancer activity, Breast Cancer; assay type: cell-based
[33] = system: OVCAR-3; assay: NCI in vitro anti-cancer activity, Ovarian Cancer; assay type: cell-based
[34] = system: MCF7; assay: NCI in vitro anti-cancer activity, Breast Cancer; assay type: cell-based
[35] = system: HL-60 (TB); assay: NCI in vitro anti-cancer activity, Leukemia; assay type: cell-based; settings: Table 29, Leukemia
[36] = system: NCI-H460; assay type: cell-based; settings: Table 29, Non-Small Cell Lung Cancer
[37] = biological target: T1, RL DHFR (Rattus norvegicus, UniProt Q920D2); assay: Inhibition of DHFR from rat liver; assay type: biochemical
T1 construct: Toxoplasmosis gondii (Tg) and rat liver (RL); from tissue; host or cells: rat liver
T1 sequence (Q920D2 1-187): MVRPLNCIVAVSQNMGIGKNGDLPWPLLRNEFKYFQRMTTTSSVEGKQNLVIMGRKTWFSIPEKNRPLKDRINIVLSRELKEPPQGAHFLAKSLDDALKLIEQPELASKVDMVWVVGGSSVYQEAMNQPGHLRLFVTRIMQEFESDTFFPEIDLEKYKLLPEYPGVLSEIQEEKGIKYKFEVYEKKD
Method: The selectivity ratio is a measure of the selectivity of a compound for Pc DHFR or Tg DHFR and is expressed as the IC50 value of the DHFR from rate liver (RL) divided by the IC50 value of either the Pc DHFR or the Tg DHFR, depending on which organism the compounds are being tested against. For example, the selectivity ratio of a compound is calculated by the following formula: [formula]

[38] = Table 29, Prostate Cancer, DU-145
[39] = Table 29, Non-Small Cell Lung Cancer, HOP-92
[40] = Table 29, Ovarian Cancer, OVCAR-4
[41] = Table 29, Ovarian Cancer, OVCAR-8
[42] = Table 29, Breast Cancer, BT-549
[43] = Table 29, Non-Small Cell Lung Cancer, NCI-H522
[44] = Table 29, Colon Cancer, COLO 205
[45] = Table 29, Ovarian Cancer, SK-OV-3
[46] = Table 29, Renal Cancer, RXF 393
[47] = Table 29, Ovarian Cancer, OVCAR-3

`Nc1nc(N)c2c(CNc3ccc(C(=O)N[C@@H](CCC(=O)O)C(=O)O)cc3)c[nH]c2n1` [Compound 9] was tested, and the GI50 ([1]; Homo sapiens, SW-620, Colon Cancer) was 3.15 µM, the GI50 ([2]; Homo sapiens, SK-MEL-28, Melanoma) was > 100 µM and the GI50 ([3]; Homo sapiens, M14, Melanoma) was < 0.01 µM. For the same molecule, the GI50 ([4]; Homo sapiens, DU-145, Prostate Cancer) was 0.0109 µM, the GI50 ([5]; Homo sapiens, U-251, U251, CNS Cancer) was < 0.01 µM and the GI50 ([6]; Homo sapiens, Melanoma) was < 0.01 µM. For the same molecule, the GI50 ([7]; Homo sapiens, SK-MEL-2, Melanoma) was > 100 µM, the GI50 ([8]; Homo sapiens, CAKI-1, Renal Cancer) was < 0.01 µM and the GI50 ([9]; Homo sapiens, OVCAR-5, Ovarian Cancer) was > 100 µM. The GI50 ([10]; Homo sapiens) was 0.687 µM, the GI50 ([11]; Homo sapiens, HOP-92, Non-Small Cell Lung Cancer) was 8.4 µM and the GI50 ([12]; Homo sapiens, Renal Cancer) was < 0.01 µM. For the same molecule, the GI50 ([13]; Homo sapiens, Breast Cancer) was > 100 µM, the GI50 ([14]; Homo sapiens, OVCAR-4, Ovarian Cancer) was > 100 µM and the GI50 ([15]; Homo sapiens, TK-10, Renal Cancer) was > 100 µM. For the same molecule, the GI50 ([16]; Homo sapiens, Renal Cancer) was < 0.01 µM, the GI50 ([17]; Homo sapiens, OVCAR-8, Ovarian Cancer) was < 0.01 µM and the GI50 ([18]; Homo sapiens, SF-268, CNS Cancer) was < 0.01 µM. The GI50 ([19]; Homo sapiens, BT-549, Breast Cancer) was > 100 µM, the GI50 ([20]; Homo sapiens, SF-295, CNS Cancer) was < 0.01 µM and the GI50 ([21]; Homo sapiens, SNB-75, CNS Cancer) was < 0.01 µM. For the same molecule, the GI50 ([22]; Homo sapiens, NCI-H522, Non-Small Cell Lung Cancer) was > 100 µM, the GI50 ([23]; Homo sapiens, COLO 205, Colon Cancer) was > 100 µM and the GI50 ([24]; Homo sapiens, SK-OV-3, Ovarian Cancer) was > 100 µM. The GI50 ([25]; Homo sapiens, Breast Cancer) was < 0.01 µM, the GI50 ([26]; Homo sapiens, UO-31, Renal Cancer) was < 0.01 µM and the GI50 ([27]; Homo sapiens, SNB-19, CNS Cancer) was > 100 µM. For the same molecule, the GI50 ([28]; Homo sapiens) was < 0.01 µM, the GI50 ([29]; Homo sapiens, RXF 393, Renal Cancer) was > 100 µM and the GI50 ([30]; Homo sapiens, HCT-15, Colon Cancer) was < 0.01 µM. The GI50 ([31]; Homo sapiens, Non-Small Cell Lung Cancer, read-out: GI50) was 39.7 µM, the GI50 ([32]; Homo sapiens, T47D, Breast Cancer) was > 100 µM and the GI50 ([33]; Homo sapiens, OVCAR-3, Ovarian Cancer) was > 100 µM. The GI50 ([34]; Homo sapiens, MCF7, Breast Cancer) was < 0.01 µM.
`COc1cc(CCc2c[nH]c3nc(N)nc(C)c23)cc(OC)c1OC` [Compound 113-154A] gave a GI50 ([3]; Table 29, Melanoma, M14) of 29.8 µM, a GI50 [4, 38] of 75.6 µM and a GI50 ([5]; Table 29, CNS Cancer, U251) of 23.4 µM. It also gave a GI50 ([6]; Table 29, Melanoma) of 47.4 µM, a GI50 ([7]; Table 29, Melanoma, SK-MEL-2) of 98.3 µM and a GI50 ([8]; Table 29, Renal Cancer, CAKI-1) of 49.5 µM. The GI50 ([10]; Table 29, Breast Cancer) was 39.2 µM, the GI50 [11, 39] was 18.2 µM and the GI50 [35] was 41.8 µM. The GI50 [36] was 19.3 µM, the GI50 ([12]; Table 29, Renal Cancer) was 35.7 µM and the GI50 ([13]; Table 29, Breast Cancer) was 27 µM. The GI50 [14, 40] was 77.8 µM, the GI50 ([15]; Table 29, Renal Cancer, TK-10) was 58.9 µM and the GI50 ([16]; Table 29, Renal Cancer) was 43.1 µM. The GI50 [17, 41] was 31.1 µM, the GI50 ([18]; Table 29, CNS Cancer, SF-268) was 39.5 µM and the GI50 [19, 42] was 19.3 µM. For the same molecule, the GI50 ([20]; Table 29, CNS Cancer, SF-295) was 36.6 µM, the GI50 ([21]; Table 29, CNS Cancer, SNB-75) was 27.5 µM and the GI50 [22, 43] was 25 µM. The GI50 [23, 44] was 48.2 µM, the GI50 [24, 45] was 88.8 µM and the GI50 ([25]; Table 29, Breast Cancer) was 35.3 µM. For the same molecule, the GI50 ([26]; Table 29, Renal Cancer, UO-31) was 34 µM, the GI50 ([27]; Table 29, CNS Cancer, SNB-19) was 67.4 µM and the GI50 ([28]; Table 29, CNS Cancer) was 20.4 µM. The GI50 [29, 46] was 32.7 µM, the GI50 ([30]; Table 29, Colon Cancer, HCT-15) was 24.3 µM and the IC50 ([37]; Table 26, read-out: Inhibitory Concentrations (IC50) RL DHFR) was 2300 nM. For the same molecule, the GI50 ([31]; Non-Small Cell Lung Cancer) was “selective”, the GI50 ([31]; Table 29, Non-Small Cell Lung Cancer, read-out: GI50) was 5.21 µM and the GI50 ([32]; Table 29, Breast Cancer) was 60.2 µM. It also gave a GI50 [33, 47] of 74.8 µM and a GI50 ([34]; Table 29, Breast Cancer, MCF7) of 27.2 µM.
For `COc1ccc(CCc2cn(Cc3ccccc3)c3nc(N)nc(C)c23)cc1` [Compound 113-118], the GI50 ([1]; Table 29, Colon Cancer, SW-620) was > 100 µM, the GI50 ([2]; Table 29, Melanoma, SK-MEL-28) was > 100 µM and the GI50 ([3]; Table 29, Melanoma, M14) was 93.6 µM. For the same molecule, the GI50 [4, 38] was > 100 µM, the GI50 ([6]; Table 29, Melanoma) was 19.5 µM and the GI50 ([7]; Table 29, Melanoma, SK-MEL-2) was > 100 µM. For the same molecule, the GI50 ([8]; Table 29, Renal Cancer, CAKI-1) was > 100 µM, the GI50 ([9]; Table 29, Ovarian Cancer, OVCAR-5) was > 100 µM and the GI50 ([10]; Table 29, Breast Cancer) was 95.4 µM. For the same molecule, the GI50 [11, 39] was 31 µM, the GI50 [35] was > 100 µM and the GI50 [36] was 42.5 µM. For the same molecule, the GI50 ([12]; Table 29, Renal Cancer) was 34.8 µM, the GI50 ([13]; Table 29, Breast Cancer) was < 100 µM and the GI50 [14, 40] was 80.1 µM. For the same molecule, the GI50 ([15]; Table 29, Renal Cancer, TK-10) was > 100 µM, the GI50 ([16]; Table 29, Renal Cancer) was > 100 µM and the GI50 [17, 41] was 52.5 µM. For the same molecule, the GI50 ([18]; Table 29, CNS Cancer, SF-268) was > 100 µM, the GI50 [19, 42] was 40.9 µM and the GI50 ([20]; Table 29, CNS Cancer, SF-295) was 79.3 µM. For the same molecule, the GI50 ([21]; Table 29, CNS Cancer, SNB-75) was > 100 µM, the GI50 [22, 43] was 29.1 µM and the GI50 [23, 44] was 38.2 µM. The GI50 [24, 45] was > 100 µM, the GI50 ([25]; Table 29, Breast Cancer) was 78.3 µM and the GI50 ([26]; Table 29, Renal Cancer, UO-31) was > 100 µM. The GI50 ([27]; Table 29, CNS Cancer, SNB-19) was > 100 µM, the GI50 ([28]; Table 29, CNS Cancer) was 30.2 µM and the GI50 [29, 46] was 94.7 µM. The GI50 ([30]; Table 29, Colon Cancer, HCT-15) was 51.4 µM, the “% inhibition RL DHFR” value ([37]; @ 31 μM) was 48% @ and the GI50 [33, 47] was > 100 µM. For the same molecule, the GI50 ([34]; Table 29, Breast Cancer, MCF7) was 29.6 µM.
